# Assay results taken from patent US10131657B2, “Bromodomain inhibitors” (AbbVie Inc., priority 2013, dated 2018).
# Test system: breast cancer cell line MX-1
# Assay: MX-1 cell line proliferation assay, Method A
# Assay type: cell-based
# Settings: Homo sapiens, MX1; MX-1 cells, 96-well, 72 hours, Cell Titer Glo; read-out: Cellular proliferation: EC50 Method A
# Method: The impact of compounds of the Examples on cancer cell proliferation was determined using the breast cancer cell line MX-1 (ATCC) in a 3-day proliferation assay and the data are reported in Table 1.
# MX-1 cells were maintained in RPMI 1640 medium (Sigma) supplemented with 10% FBS at 37° C. and an atmosphere of 5% CO2. For compound testing, MX-1 cells were plated in 96-well black bottom plates at a density of 5000 cells/well in 90 μL of culture media and incubated at 370 overnight to allow cell adhesion and spreading. Compound dilution series were prepared in DMSO via a 3-fold serial dilution from 3 mM to 0.1 μM. The DMSO dilution series were then diluted 1:100 in phosphate buffered saline, and 10 μL of the resulted solution were added to the appropriate wells of the MX-1 cell plate. The final compound concentrations in the wells were 3, 1, 0.3, 0.1, 0.03, 0.01, 0.003, 0.001, 0.0003 and 0.0001 μM.
# Luminescence readings from the Cell Titer Glo assay were normalized to the DMSO treated cells and analyzed using the GraphPad Prism software with sigmoidal curve fitting to obtain ECs50s. The minimum significant ratio (MSR) was determined to evaluate assay reproducibility (Eastwood et al., (2006) J Biomol Screen, 11: 253-261).
row,EC50 [nM],Structure (SMILES)
1,> 1000,"Cn1cc(-c2cc(S(C)(=O)=O)ccc2Oc2cccc(C(=O)N3CCC(N4CCCC4)CC3)c2)c2cc[nH]c2c1=O [Example 24, 6-methyl-4-[5-(methylsulfonyl)-2-(3-{[4-(pyrrolidin-1-yl)piperidin-1-yl]carbonyl}phenoxy)phenyl]-1,6-dihydro-7H-pyrrolo[2,3-c]pyridin-7-one]"
2,134,"Cn1cc(-c2cc(S(C)(=O)=O)ccc2Oc2cccc(C(=O)NC3CCCCC3)c2)c2cc[nH]c2c1=O [Example 25, N-cyclohexyl-3-[2-(6-methyl-7-oxo-6,7-dihydro-1H-pyrrolo[2,3-c]pyridin-4-yl)-4-(methylsulfonyl)phenoxy]benzamide]"
3,442,"Cn1cc(-c2cc(S(C)(=O)=O)ccc2Oc2cccc(C(=O)NCCCN3CCCC3=O)c2)c2cc[nH]c2c1=O [Example 27, 3-[2-(6-methyl-7-oxo-6,7-dihydro-1H-pyrrolo[2,3-c]pyridin-4-yl)-4-(methylsulfonyl)phenoxy]-N-[3-(2-oxopyrrolidin-1-yl)propyl]benzamide]"
4,195,"Cn1cc(-c2cc(S(C)(=O)=O)ccc2Oc2cccc(C(=O)N3CCN(C4CCCC4)CC3)c2)c2cc[nH]c2c1=O [Example 28, 4-[2-{3-[(4-cyclopentylpiperazin-1-yl)carbonyl]phenoxy}-5-(methylsulfonyl)phenyl]-6-methyl-1,6-dihydro-7H-pyrrolo[2,3-c]pyridin-7-one]"
5,> 1000,"CN(C)CCN1CCN(C(=O)c2cccc(Oc3ccc(S(C)(=O)=O)cc3-c3cn(C)c(=O)c4[nH]ccc34)c2)CC1 [Example 29, 4-{2-[3-({4-[2-(dimethylamino)ethyl]piperazin-1-yl}carbonyl)phenoxy]-5-(methylsulfonyl)phenyl}-6-methyl-1,6-dihydro-7H-pyrrolo[2,3-c]pyridin-7-one]"
6,> 1000,"CC(=O)N1CCN(C(=O)c2cccc(Oc3ccc(S(C)(=O)=O)cc3-c3cn(C)c(=O)c4[nH]ccc34)c2)CC1 [Example 30, 4-[2-{3-[(4-acetylpiperazin-1-yl)carbonyl]phenoxy}-5-(methylsulfonyl)phenyl]-6-methyl-1,6-dihydro-7H-pyrrolo[2,3-c]pyridin-7-one]"
7,443,"Cn1cc(-c2cc(S(C)(=O)=O)ccc2Oc2cccc(C(=O)N3CCC(C(F)(F)F)CC3)c2)c2cc[nH]c2c1=O [Example 31, 6-methyl-4-[5-(methylsulfonyl)-2-(3-{[4-(trifluoromethyl)piperidin-1-yl]carbonyl}phenoxy)phenyl]-1,6-dihydro-7H-pyrrolo[2,3-c]pyridin-7-one]"
8,> 1000,"CN(C)CCNC(=O)c1cccc(Oc2ccc(S(C)(=O)=O)cc2-c2cn(C)c(=O)c3[nH]ccc23)c1 [Example 33, N-[2-(dimethylamino)ethyl]-3-[2-(6-methyl-7-oxo-6,7-dihydro-1H-pyrrolo[2,3-c]pyridin-4-yl)-4-(methylsulfonyl)phenoxy]benzamide]"
9,155,"Cn1cc(-c2cc(S(C)(=O)=O)ccc2Oc2cccc(C(=O)NC[C@H]3CCCO3)c2)c2cc[nH]c2c1=O [Example 34, 3-[2-(6-methyl-7-oxo-6,7-dihydro-1H-pyrrolo[2,3-c]pyridin-4-yl)-4-(methylsulfonyl)phenoxy]-N-[(2R)-tetrahydrofuran-2-ylmethyl]benzamide]"
10,406,"Cn1cc(-c2cc(S(C)(=O)=O)ccc2Oc2cccc(C(=O)NCCN3CCCC3)c2)c2cc[nH]c2c1=O [Example 35, 3-[2-(6-methyl-7-oxo-6,7-dihydro-1H-pyrrolo[2,3-c]pyridin-4-yl)-4-(methylsulfonyl)phenoxy]-N-[2-(pyrrolidin-1-yl)ethyl]benzamide]"
11,255,"Cn1cc(-c2cc(S(C)(=O)=O)ccc2Oc2cccc(C(=O)NCc3cc(F)cc(F)c3)c2)c2cc[nH]c2c1=O [Example 36, N-(3,5-difluorobenzyl)-3-[2-(6-methyl-7-oxo-6,7-dihydro-1H-pyrrolo[2,3-c]pyridin-4-yl)-4-(methylsulfonyl)phenoxy]benzamide]"
12,103,"Cn1cc(-c2cc(S(C)(=O)=O)ccc2Oc2cccc(NS(=O)(=O)Cc3ccccc3)c2)c2cc[nH]c2c1=O [Example 38, N-{3-[2-(6-methyl-7-oxo-6,7-dihydro-1H-pyrrolo[2,3-c]pyridin-4-yl)-4-(methylsulfonyl)phenoxy]phenyl}-1-phenylmethanesulfonamide]"
13,97.4,"COc1ccc(S(=O)(=O)Nc2cccc(Oc3ccc(S(C)(=O)=O)cc3-c3cn(C)c(=O)c4[nH]ccc34)c2)cc1 [Example 39, 4-methoxy-N-{3-[2-(6-methyl-7-oxo-6,7-dihydro-1H-pyrrolo[2,3-c]pyridin-4-yl)-4-(methylsulfonyl)phenoxy]phenyl}benzenesulfonamide]"
14,143,"Cn1cc(-c2cc(S(C)(=O)=O)ccc2Oc2cccc(NS(=O)(=O)c3cccc(F)c3)c2)c2cc[nH]c2c1=O [Example 40, 3-fluoro-N-{3-[2-(6-methyl-7-oxo-6,7-dihydro-1H-pyrrolo[2,3-c]pyridin-4-yl)-4-(methylsulfonyl)phenoxy]phenyl}benzenesulfonamide]"
15,157,"COc1cccc(S(=O)(=O)Nc2cccc(Oc3ccc(S(C)(=O)=O)cc3-c3cn(C)c(=O)c4[nH]ccc34)c2)c1 [Example 42, 3-methoxy-N-{3-[2-(6-methyl-7-oxo-6,7-dihydro-1H-pyrrolo[2,3-c]pyridin-4-yl)-4-(methylsulfonyl)phenoxy]phenyl}benzenesulfonamide]"
16,451,"Cn1cc(-c2cc(S(C)(=O)=O)ccc2Oc2cccc(NS(=O)(=O)c3ccc([N+](=O)[O-])cc3)c2)c2cc[nH]c2c1=O [Example 43, N-{3-[2-(6-methyl-7-oxo-6,7-dihydro-1H-pyrrolo[2,3-c]pyridin-4-yl)-4-(methylsulfonyl)phenoxy]phenyl}-4-nitrobenzenesulfonamide]"
17,391,"CC(=O)c1ccc(S(=O)(=O)Nc2cccc(Oc3ccc(S(C)(=O)=O)cc3-c3cn(C)c(=O)c4[nH]ccc34)c2)cc1 [Example 44, 4-acetyl-N-{3-[2-(6-methyl-7-oxo-6,7-dihydro-1H-pyrrolo[2,3-c]pyridin-4-yl)-4-(methylsulfonyl)phenoxy]phenyl}benzenesulfonamide]"
18,43.1,"CC(C)c1ccc(S(=O)(=O)Nc2cccc(Oc3ccc(S(C)(=O)=O)cc3-c3cn(C)c(=O)c4[nH]ccc34)c2)cc1 [Example 46, N-{3-[2-(6-methyl-7-oxo-6,7-dihydro-1H-pyrrolo[2,3-c]pyridin-4-yl)-4-(methylsulfonyl)phenoxy]phenyl}-4-(propan-2-yl)benzenesulfonamide]"
19,172,"Cn1cc(-c2cc(S(C)(=O)=O)ccc2Oc2cccc(NS(=O)(=O)c3cccc(OC(F)F)c3)c2)c2cc[nH]c2c1=O [Example 48, 3-(difluoromethoxy)-N-{3-[2-(6-methyl-7-oxo-6,7-dihydro-1H-pyrrolo[2,3-c]pyridin-4-yl)-4-(methylsulfonyl)phenoxy]phenyl}benzenesulfonamide]"
20,73.8,"Cn1cc(-c2cc(S(C)(=O)=O)ccc2Oc2cccc(NS(=O)(=O)C3CC3)c2)c2cc[nH]c2c1=O [Example 49, N-{3-[2-(6-methyl-7-oxo-6,7-dihydro-1H-pyrrolo[2,3-c]pyridin-4-yl)-4-(methylsulfonyl)phenoxy]phenyl}cyclopropanesulfonamide]"
21,40.5,"Cc1cccc(S(=O)(=O)Nc2cccc(Oc3ccc(S(C)(=O)=O)cc3-c3cn(C)c(=O)c4[nH]ccc34)c2)c1 [Example 50, 3-methyl-N-{3-[2-(6-methyl-7-oxo-6,7-dihydro-1H-pyrrolo[2,3-c]pyridin-4-yl)-4-(methylsulfonyl)phenoxy]phenyl}benzenesulfonamide]"
22,> 1000,"Cn1cc(-c2cc(S(C)(=O)=O)ccc2Oc2cccc(NS(=O)(=O)c3cccc([N+](=O)[O-])c3)c2)c2cc[nH]c2c1=O [Example 51, N-{3-[2-(6-methyl-7-oxo-6,7-dihydro-1H-pyrrolo[2,3-c]pyridin-4-yl)-4-(methylsulfonyl)phenoxy]phenyl}-3-nitrobenzenesulfonamide]"
23,38.6,"Cc1cc(F)ccc1S(=O)(=O)Nc1cccc(Oc2ccc(S(C)(=O)=O)cc2-c2cn(C)c(=O)c3[nH]ccc23)c1 [Example 52, 4-fluoro-2-methyl-N-{3-[2-(6-methyl-7-oxo-6,7-dihydro-1H-pyrrolo[2,3-c]pyridin-4-yl)-4-(methylsulfonyl)phenoxy]phenyl}benzenesulfonamide]"
24,> 1000,"Cn1cc(-c2cc(S(C)(=O)=O)ccc2Oc2cccc(NS(=O)(=O)c3ccc(S(C)(=O)=O)cc3)c2)c2cc[nH]c2c1=O [Example 54, N-{3-[2-(6-methyl-7-oxo-6,7-dihydro-1H-pyrrolo[2,3-c]pyridin-4-yl)-4-(methylsulfonyl)phenoxy]phenyl}-4-(methylsulfonyl)benzenesulfonamide]"
25,393,"Cn1cc(-c2cc(S(C)(=O)=O)ccc2Oc2cccc(NS(=O)(=O)c3ccccc3C#N)c2)c2cc[nH]c2c1=O [Example 55, 2-cyano-N-{3-[2-(6-methyl-7-oxo-6,7-dihydro-1H-pyrrolo[2,3-c]pyridin-4-yl)-4-(methylsulfonyl)phenoxy]phenyl}benzenesulfonamide]"
26,> 1000,"Cn1cc(-c2cc(S(C)(=O)=O)ccc2Oc2cccc(NS(=O)(=O)c3cccc(C#N)c3)c2)c2cc[nH]c2c1=O [Example 57, 3-cyano-N-{3-[2-(6-methyl-7-oxo-6,7-dihydro-1H-pyrrolo[2,3-c]pyridin-4-yl)-4-(methylsulfonyl)phenoxy]phenyl}benzenesulfonamide]"
